In one assay the test system is Alternaria alternata. The experiment in a line: Antifungal bioassay, poisoned medium technique. The assay is classed as cell-based. Particulars: 168 h, read-out: MIC values against Alternaria alternata. The procedure: (§1) Anti-microbial assays of the isolated componds were performed against the selected strain of fungi i.e., Alternaria alternata, Aspergillus fumigatus, Aspergillus niger, and Penicillium citrii.
(§2) Alternaria alternata, Aspergillus fumigatus, Aspergillus niger, and Penicillium citrii strains were obtained from the Biotechnology lab at COMSATS University Islamabad. The antifungal activity of isolated compounds was assessed using poisoned medium technique. Two percent malt extract agar medium was generated by autoclaving at 121 °C for 30 minutes. Weighed volumes of the compounds were dissolved in […] of sterilized distilled water and put to flasks containing 59.5 mL of malt extract agar medium while they were still molten to obtain final concentrations of 100, 300, 500, 700, 900, and 1000 ppm. The control received the same amount of distilled water. Each sterile Petri plate with a diameter of 90 mm was filled with 20 mL of each medium and allowed to solidify. 5 mm diameter mycelial discs were produced from the tips of 5–7 day-old cultures of the four test fungus species and put in the center of each Petri dish using a sterile cork borer. Every treatment was duplicated three times. Plates were cultured in an incubator at 25 ± 2 °C for seven days. To calculate the rate of fungal growth, the three diameters of each colony were measured at right angles and averaged. Table 2 MIC values (μM) of the isolated compounds against Alternaria alternata, Aspergillus fumigatus, Aspergillus niger, and Penicillium citrii strains.[19]

The test system of a further assay is Penicillium citrii. The experiment in a line: Antifungal bioassay, poisoned medium technique. Particulars: 168 h, read-out: MIC values against Penicillium citrii. The assay is classed as cell-based. The procedure:
as §1, §2

A further assay deals with Aspergillus niger. The experiment in a line: Antifungal bioassay, poisoned medium technique. The format is cell-based. As to conditions: 168 h, read-out: MIC values against Aspergillus niger. The procedure:
as §1, §2

The subject of the next assay is Aspergillus fumigatus. The experiment in a line: Antifungal bioassay, poisoned medium technique. The assay is classed as cell-based. As to conditions: 168 h, read-out: MIC values against Aspergillus fumigatus. The procedure:
as §1, §2

The target in another assay is Jack bean urease (Canavalia ensiformis, UniProt P07374). The experiment in a line: biochemical. The format is biochemical. Particulars: for inhibition at 500 µM: pH 6.8, read-out: % Inhibition of urease. The method, then:
The inhibition potential of the isolated compounds against urease was investigated using a SpectraMax M2 reader using 96-well microplates.
The kinetic assay involved preparing varying concentrations of both the test compound and the substrate (urea), spanning 0 μM, 5 μM, 10 μM, 15 μM, and 20 μM. The resulting data was utilized to construct a Lineweaver–Burk plot.
In 96-well plates were incubated at 37 °C for 15 min, reaction mixtures consisting of 25 μL of test compounds (each 0.5 mM), 25 μL of enzyme solution (Jack bean urease) and 55 μL of buffers containing 20.79 mM urea. The indophenol method described by Weatherburn[21] was used to determine urease inhibitor activity by measuring ammonia production. Briefly, to each well were added 70 μL of alkaline reagent (0.5% w/v NaOH and 0.1% active chloride, NaOCl) and 45 μL of phenolic reagent (1% w/v phenol and 0.005% w/v sodium nitroprusside). The microplate reader (Molecular Devices, USA) was used to measure the increase in absorbance at 650 nm after 50 min. A final volume of 245 μL was required to perform all reactions in a triplicate. The results (absorbance change per minute) were processed using SoftMax Pro software (Molecular Devices, USA). All assays were performed at pH 6.8. Inhibition percentages were calculated from the formula% Inhibition = 100 − (Abs(sample)/Abs(control)) × 100where “A” is the absorbance of the “test well” as well as the “control”. Thiourea was used as a standard.

The test system of assay [1] is human HepG2 hepatic cancer cells. The experiment in a line: MTT cell viability assay. The assay is classed as cell-based. Particulars: Homo sapiens, HepG2, 48 h. The method, then: The human liver cells were cultivated in Dulbecco's modified Eagle medium (DMEM) in which 100 U mL^−1 penicillin, 10% fetal bovine and […] streptomycin were added and kept at 37 °C in a […] carbon dioxide induced humidified environment. The human liver cells prepared as per above procedure were then treated with synthesized compounds diluted to 0.05% DMSO concentration.
Using MTT assay, the % viability of cancer cells 36 was evaluated. According to the standard procedure, HepG2 cells were treated with various dosages of synthesized compounds for 48 hours each. The cells were then incubated for 4 hours at 37 °C with 10μ MTT reagent (5 mg mL^−1). Next, in 150 μL DMSO was added to dissolve formazan crystals. The λmax was recorded at 409 nm in a microplate reader (thermos scientific).

[2] abbreviates: poisoned medium, 25 ± 2 °C, seven days.
Where [3] appears, read: HepG2, MTT, 48 hours, at 200 μg.

Values after ≈ are worked out from the molar mass of the structure shown. Where two headings read alike, the source gives them in different places.

Chain of Jack bean urease (P07374 whole entry, looked up): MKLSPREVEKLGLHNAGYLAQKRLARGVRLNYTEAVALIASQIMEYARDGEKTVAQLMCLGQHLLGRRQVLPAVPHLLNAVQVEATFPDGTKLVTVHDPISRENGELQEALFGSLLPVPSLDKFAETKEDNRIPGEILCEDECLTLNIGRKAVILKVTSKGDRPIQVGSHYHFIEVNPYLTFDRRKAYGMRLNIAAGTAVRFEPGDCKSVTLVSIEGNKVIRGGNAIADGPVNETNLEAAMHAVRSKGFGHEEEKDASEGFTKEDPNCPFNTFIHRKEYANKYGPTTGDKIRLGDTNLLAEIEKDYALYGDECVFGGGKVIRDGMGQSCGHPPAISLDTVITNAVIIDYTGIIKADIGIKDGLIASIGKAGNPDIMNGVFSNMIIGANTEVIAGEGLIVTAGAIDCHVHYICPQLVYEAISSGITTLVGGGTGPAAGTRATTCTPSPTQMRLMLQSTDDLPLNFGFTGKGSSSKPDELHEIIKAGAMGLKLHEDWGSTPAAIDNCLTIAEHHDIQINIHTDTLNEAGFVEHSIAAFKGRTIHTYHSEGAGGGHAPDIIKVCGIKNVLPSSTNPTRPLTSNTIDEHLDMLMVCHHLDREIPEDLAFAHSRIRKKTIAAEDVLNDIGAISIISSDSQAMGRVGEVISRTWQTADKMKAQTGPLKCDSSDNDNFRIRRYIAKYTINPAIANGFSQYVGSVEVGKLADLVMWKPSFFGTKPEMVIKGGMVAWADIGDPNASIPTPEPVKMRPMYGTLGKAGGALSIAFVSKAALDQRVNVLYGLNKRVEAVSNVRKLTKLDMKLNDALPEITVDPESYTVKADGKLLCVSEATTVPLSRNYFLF

For the compound `Cc1cc(O)c2c(c1)C(=O)c1cc(O)cc(O)c1C2=O` [Emodin], the MIC with Alternaria alternata (setting [2]) stood at 0.01 ± 0.006 µM (≈ 2.7 ng/mL); in the assay with Penicillium citrii (setting [2]), 0.045 ± 0.005 µM (≈ 12.2 ng/mL); in the assay on Aspergillus niger (setting [2]) it was 0.04 ± 0.003 µM (≈ 10.8 ng/mL); in the assay on Aspergillus fumigatus (setting [2]) it was 0.035 ± 0.005 µM (≈ 9.46 ng/mL).
In the same order, the values of `CCC(CCC(C)C1CCC2C3CC(=O)C4=CC(=O)CCC4(C)C3CCC12C)C(C)C` (stereo not shown) [Stigmast-4-en-3,6-dione] are 0.15 ± 0.005 µM (≈ 64 ng/mL), 0.04 ± 0.003 µM (≈ 17.1 ng/mL), 0.02 ± 0.006 µM (≈ 8.53 ng/mL) and 0.125 ± 0.0015 µM (≈ 53.3 ng/mL).
On the same counts, the results for `COc1cc(O)c2c(c1)C(=O)c1cc(C)cc(O)c1C2=O` [Physcion] are 0.015 ± 0.005 µM (≈ 4.26 ng/mL), 0.03 ± 0.005 µM (≈ 8.53 ng/mL), 0.09 ± 0.009 µM (≈ 25.6 ng/mL) and 0.035 ± 0.006 µM (≈ 9.95 ng/mL).
Regarding `O=c1cc(-c2ccc(O)c(O)c2)oc2c([C@@H]3O[C@H](CO)[C@@H](O)[C@H](O)[C@H]3O)c(O)cc(O)c12` [Luteolin-8-C-β-D-glucopyranoside], the minimal inhibitory concentration (MIC) is 0.021 ± 0.005 µM (≈ 9.42 ng/mL) with Alternaria alternata, 0.015 ± 0.008 µM (≈ 6.73 ng/mL) in the assay with Penicillium citrii, 0.013 ± 0.006 µM (≈ 5.83 ng/mL) with Aspergillus niger and 0.014 ± 0.005 µM (≈ 6.28 ng/mL) in the assay on Aspergillus fumigatus.
With `O=c1cc(-c2ccc(O)c(O)c2)oc2cc(O)c([C@@H]3O[C@H](CO)[C@@H](O)[C@H](O)[C@H]3O)c(O)c12` [Luteolin-6-C-β-D-glucopyranoside], the MIC with Alternaria alternata (setting [2]) was 0.06 ± 0.007 µM (≈ 26.9 ng/mL); in the assay with Penicillium citrii (setting [2]), 0.022 ± 0.003 µM (≈ 9.86 ng/mL); in the assay on Aspergillus niger (setting [2]), 0.0072 ± 0.0003 µM (≈ 3.23 ng/mL); in the assay on Aspergillus fumigatus (setting [2]), 0.25 ± 0.003 µM (≈ 112 ng/mL).
In the same order, the values of `O=c1cc(-c2ccc(O)c(O)c2)oc2cc(O)ccc12` [Compound 3, 3′,4′,7-Trihydroxyflavone] are 0.056 ± 0.001 µM (≈ 15.1 ng/mL), 0.016 ± 0.01 µM (≈ 4.32 ng/mL), 0.032 ± 0.005 µM (≈ 8.65 ng/mL) and 0.013 ± 0.003 µM (≈ 3.51 ng/mL).
With `O=c1cc(-c2ccc(O)c(O)c2)oc2cc(O)cc(O)c12` [Compound 2, Luteolin], the MIC in the assay with Alternaria alternata (setting [2]) is 0.043 ± 0.002 µM (≈ 12.3 ng/mL); with Penicillium citrii (setting [2]) it was 0.05 ± 0.002 µM (≈ 14.3 ng/mL); with Aspergillus niger (setting [2]) it was 0.021 ± 0.001 µM (≈ 6.01 ng/mL); in the assay on Aspergillus fumigatus (setting [2]), 0.01 ± 0.004 µM (≈ 2.86 ng/mL). Half-maximal inhibition against Jack bean urease (IC50) required 1.3 ± 0.28 µM. For the same compound, the inhibition at 500 µM on Jack bean urease turned out to be 82%. The same compound returned a viability at 200 µg in assay [1] (setting [3]) of 82.5 ± 4.31%.
Turning to `NC(N)=S` [thiourea, reference compound], the half-inhibitory concentration (IC50) at Jack bean urease (pH 6.8, read-out: IC50 ± SEM, urease) worked out at 18.61 ± 0.11 µM; on Jack bean urease (read-out: IC50, urease (conclusions)), 18.61 ± 0.11 µM. Further, the “% Inhibition of urease” value at Jack bean urease (test compounds each 0.5 mM, pH 6.8) was 86.73%.
With `CC[C@H](CC[C@@H](C)[C@H]1CC[C@H]2[C@@H]3CC=C4C[C@@H](O)CC[C@]4(C)[C@H]3CC[C@]12C)C(C)C` [Compound 15, β-Sitosterol], on Jack bean urease, the IC50 amounted to 2.78 ± 0.24 µM and the inhibition at 500 µM amounted to 80%. In assay [1], this compound gave a viability at 200 µg of 94.4 ± 4.42%.
For the compound `CC[C@H](CC[C@@H](C)C1CCC2C3CC=C4C[C@@H](O[C@@H]5O[C@H](CO)[C@@H](O)[C@H](O)[C@H]5O)CC[C@]4(C)C3CC[C@@]21C)C(C)C` (stereo partly drawn) [Compound 16, β-Sitosterol 3-O-β-D-glucopyranoside], the inhibition at 500 µM on Jack bean urease worked out at 19.5%. In addition, in assay [1] (setting [3]), the viability at 200 µg is 96.4 ± 2.2%.
Take `CC[C@H](CC[C@@H](C)[C@H]1CC[C@H]2[C@@H]3C[C@H](O)C4=C[C@@H](O)CC[C@]4(C)[C@H]3CC[C@]12C)C(C)C` [Stigmast-4-en-3β,6α-diol]: the MIC is 0.045 ± 0.003 µM (≈ 19.4 ng/mL) in the assay on Alternaria alternata (setting [2]), 0.2 ± 0.03 µM (≈ 86.1 ng/mL) in the assay with Penicillium citrii (setting [2]), 0.015 ± 0.005 µM (≈ 6.46 ng/mL) in the assay with Aspergillus niger (setting [2]) and 0.01 ± 0.006 µM (≈ 4.31 ng/mL) in the assay with Aspergillus fumigatus (setting [2]).
Consider `Cc1cc(O)c2c(c1)C(=O)c1cc(O)cc(O)c1C2=O` [Compound 11, Emodin], for which, on Jack bean urease, inhibition was half-maximal at 5.2 ± 0.14 µM (IC50) and the inhibition at 500 µM was 72.9%. The compound further gave a viability at 200 µg in assay [1] (setting [3]) of 83.89 ± 0.73%.

The values are drawn from article PMC10945739, “Exploring Cassia mimosoïdes as a promising natural source of steroids with potent anti-cancer, urease inhibition, and antimicrobial properties” (RSC Advances, 2024).
